Measurements as given in PMC10845145, “Synergistic Effect of Brevetoxin BTX-3 and Ciguatoxin CTX3C in Human Voltage-Gated Nav1.6 Sodium Channels” (Chemical Research in Toxicology, 2023).
Where two headings read alike, the source gives them in different places.

Experiments:
[1] = biological target: rat brain sodium channels; conditions: cited from earlier work; for Ki: binding affinity to rat brain sodium channels, read-out: inhibitory constant (ki)
[2] = biological target: T1, human Nav1.6 voltage-gated sodium channels (Homo sapiens, UniProt Q9UQD0); test: Whole-cell patch-clamp recording of sodium current activation (peak INa, activation voltage) in HEK293 cells transfected with Nav1.6; assay type: cell-based; conditions: for +10 nM BTX-3 normalized INa (max) / normalized INa (max): control = –1; for normalized INa (max): CTX3C alone; for shift in the activation voltage for CTX3C: vs control
T1 construct: host or cells: HEK293
T1 sequence (Q9UQD0 whole entry): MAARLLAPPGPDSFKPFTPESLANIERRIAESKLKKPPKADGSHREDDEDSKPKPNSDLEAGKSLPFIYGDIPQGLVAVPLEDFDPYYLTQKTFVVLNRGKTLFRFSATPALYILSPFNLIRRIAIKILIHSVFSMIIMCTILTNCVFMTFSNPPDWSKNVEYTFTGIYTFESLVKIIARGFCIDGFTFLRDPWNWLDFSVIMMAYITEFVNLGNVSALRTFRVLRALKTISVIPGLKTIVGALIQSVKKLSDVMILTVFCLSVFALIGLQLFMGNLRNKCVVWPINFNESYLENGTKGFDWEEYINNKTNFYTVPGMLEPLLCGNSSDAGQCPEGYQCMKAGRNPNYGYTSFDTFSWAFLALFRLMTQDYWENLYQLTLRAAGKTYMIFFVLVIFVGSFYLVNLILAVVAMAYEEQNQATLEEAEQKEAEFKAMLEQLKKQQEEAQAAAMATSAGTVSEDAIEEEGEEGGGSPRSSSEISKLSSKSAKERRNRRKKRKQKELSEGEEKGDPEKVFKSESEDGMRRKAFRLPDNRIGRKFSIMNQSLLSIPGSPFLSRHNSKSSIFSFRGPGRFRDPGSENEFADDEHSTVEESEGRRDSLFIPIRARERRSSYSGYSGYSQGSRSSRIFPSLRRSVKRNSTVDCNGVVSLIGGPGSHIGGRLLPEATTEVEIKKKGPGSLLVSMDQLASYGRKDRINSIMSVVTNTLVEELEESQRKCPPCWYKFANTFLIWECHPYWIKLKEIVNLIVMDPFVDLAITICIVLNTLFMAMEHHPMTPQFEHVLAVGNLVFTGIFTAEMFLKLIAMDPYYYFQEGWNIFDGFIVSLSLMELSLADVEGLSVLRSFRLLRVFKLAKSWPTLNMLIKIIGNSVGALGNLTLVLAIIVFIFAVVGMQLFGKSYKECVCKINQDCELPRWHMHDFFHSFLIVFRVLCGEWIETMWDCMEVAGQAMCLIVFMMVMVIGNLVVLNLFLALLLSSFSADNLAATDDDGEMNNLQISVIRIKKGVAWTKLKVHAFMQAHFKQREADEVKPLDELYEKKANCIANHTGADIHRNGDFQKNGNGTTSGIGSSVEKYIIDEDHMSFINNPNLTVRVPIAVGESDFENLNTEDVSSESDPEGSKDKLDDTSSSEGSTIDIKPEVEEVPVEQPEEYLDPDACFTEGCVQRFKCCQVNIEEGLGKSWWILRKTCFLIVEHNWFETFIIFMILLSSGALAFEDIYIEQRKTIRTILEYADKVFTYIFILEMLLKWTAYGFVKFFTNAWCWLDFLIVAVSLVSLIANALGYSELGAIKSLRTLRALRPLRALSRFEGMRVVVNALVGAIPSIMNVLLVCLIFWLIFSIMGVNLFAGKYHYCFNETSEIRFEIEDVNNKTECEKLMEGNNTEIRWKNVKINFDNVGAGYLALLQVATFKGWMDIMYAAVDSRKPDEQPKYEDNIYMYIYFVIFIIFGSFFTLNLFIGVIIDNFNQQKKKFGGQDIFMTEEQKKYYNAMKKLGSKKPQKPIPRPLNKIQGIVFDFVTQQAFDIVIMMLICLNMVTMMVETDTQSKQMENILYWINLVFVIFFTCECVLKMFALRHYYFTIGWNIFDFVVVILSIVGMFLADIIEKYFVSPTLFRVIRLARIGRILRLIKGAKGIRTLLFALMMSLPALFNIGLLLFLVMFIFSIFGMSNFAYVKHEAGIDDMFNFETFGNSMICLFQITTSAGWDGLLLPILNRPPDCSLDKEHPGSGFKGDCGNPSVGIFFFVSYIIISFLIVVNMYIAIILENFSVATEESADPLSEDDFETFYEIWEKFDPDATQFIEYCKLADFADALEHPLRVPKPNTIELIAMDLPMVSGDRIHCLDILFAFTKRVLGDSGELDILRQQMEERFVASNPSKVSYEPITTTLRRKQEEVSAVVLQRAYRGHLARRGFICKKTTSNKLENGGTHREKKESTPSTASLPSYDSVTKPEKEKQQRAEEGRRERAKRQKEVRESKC
Experimental: (§1) The human embryonic kidney cell line (HEK293) transfected with the α subunit of the Nav1.6 sodium channel isoform was kindly provided, under a material transfer agreement, by GlaxoSmithKline R&D (Stevenage, U.K). The cells were cultured in Dulbecco’s modified Eagle’s medium (DMEM)/F12 medium enriched with glutamax, nonessential amino acid solution (MEM, Gibco, 1% w/v), 10% fetal bovine serum, and 0.4 mg/mL Geneticin (G418, Gibco) and maintained at 37 °C in a humidified 95% […]/5% CO2 atmosphere until they reached 80% of confluence, replacing the medium every 2 days. The cells were subcultured in 12-well plates in glass coverslips at a density of 60,000 cells/mL. Twenty-four or 48 h before electrophysiological recordings, the cells were placed at 30 °C to maximize sodium channel expression.[32]
(§2) For electrophysiological recordings, glass coverslips with cells were placed in a recording chamber with 0.5 mL Lockés buffer as the extracellular solution. Recording electrodes were fabricated with borosilicate glass microcapillaries (1.5 outer diameter) and had resistances ranging from 4 to 10 MΩ. Pipettes were filled with an intracellular solution containing 120 mM CsF, 10 mM EGTA, 10 mM HEPES, and 15 mM NaCl and pH adjusted to 7.25 with CsOH. Voltage-gated sodium currents were recorded at room temperature 5 min after reaching the whole-cell configuration with a Multiclamp 700B amplifier and digitalized with the Digidata 1440A (both from Axon Instruments, California, U.S.A.) maintaining the cells at a holding potential (Vhold) of −55 mV. Signals were sampled at 50 kHz after low-pass Bessel filtering at 10 kHz. Compensation circuitry was used to reduce the series resistance by at least 70%. To record the activation of VGSCs, voltage steps from −80 to +80 mV in 10 mV step increments were applied prior to a test pulse of −90 mV. Fast inactivation was measured at 0 mV after prior test pulses of 300 ms duration ranging from −100 to 0 mV in 10 mV voltage step increments after maintaining the holding potential at −90 mV during 10 ms.
(§3) All data are expressed as means ± SEMs of n determinations. Data analysis was performed using GraphPad Prism 8. Statistical comparisons were performed using one-way analysis of variance (ANOVA), followed by post hoc Dunnett̀s tests. p values ≤ 0.05 were considered statistically significant, and IC50 values were determined by fitting the data with a log (inhibitor) vs normalized response model.
(§4) The combination index (CI) was calculated with the Chou–Talalay equation[33] following the formula [drawing 1] 1 where (DX)1 is the IC50 value of CTX3C alone, (DX)2 the IC50 value of BTX-3 alone, and D1 and D2 are the IC50 values of CTX3C and BTX-3, respectively, in combination. According to the Chou–Talalay method, additivity is established if CI = 1, synergism if CI < 1, and antagonism if CI > 1.

[3] = biological target: T1, human Nav1.6 voltage-gated sodium channels; test: Whole-cell patch-clamp recording of fast inactivation of sodium channels in HEK293 cells transfected with Nav1.6; assay type: cell-based; conditions: for IC50: read-out: IC50, hyperpolarizing shift in the inactivation voltage
Experimental: as §1, §2, §3, §4

SMILES: C[C@@H]1C[C@@H]2O[C@@H]3[C@@H](C)[C@H](O)[C@@H]4O[C@]5(C[C@H](O)CO5)[C@@H](C)[C@H](C)[C@H]4O[C@H]3C[C@H]2O[C@H]2C[C@H]3O[C@H]4C/C=C\C[C@H]5O[C@H]6C=C[C@H]7O[C@H]8[C@H](O)[C@H]9O[C@@H](/C=C/[C@H](O)CO)C=CC[C@@H]9O[C@@H]8C[C@@H]7O[C@@H]6C=C[C@@H]5O[C@@H]4C[C@@H](O)[C@]3(C)O[C@@H]2C1 [ciguatoxin-1B]
- Ki [1]: 0.041 nM
- ki difference relative to BTX-1 ([1]; ciguatoxin-1B vs BTX-1): more than 50 fold

SMILES: CC1CC2OC3C(CC2OC2CC4OC5CC=CCC6OC7C=CC8OC9C(CC8OC7CC=CC6OC5CC(O)C4(C)OC2C1)OC1CC=CCOC1C9O)OC1C(C)C(C)C2(CCCO2)OC1C(O)C3C (stereo not shown) [CTX3C, ciguatoxin 3C]
- agonist profile on the channels (negative displacement in the activation voltage) [2]: full agonist
- effect on maximum INa peak ([2]; 0.17 nM CTX3C): a decrease of the maximum INa peak was elicited
- effect on the activation voltage ([2]; 0.17 nM CTX3C alone): no changes in the activation voltage were observed
- +10 nM BTX-3 normalized INa (max) ([2]; CTX3C 0.0001 nM in the presence of 10 nM BTX-3): –0.89 ± 0.08
- +10 nM BTX-3 normalized INa (max) ([2]; CTX3C 0.001 nM in the presence of 10 nM BTX-3): –0.89 ± 0.13
- +10 nM BTX-3 normalized INa (max) ([2]; CTX3C 0.01 nM in the presence of 10 nM BTX-3): –0.88 ± 0.13
- +10 nM BTX-3 normalized INa (max) ([2]; CTX3C 0.1 nM in the presence of 10 nM BTX-3): –0.90 ± 0.11
- +10 nM BTX-3 normalized INa (max) ([2]; CTX3C 1 nM in the presence of 10 nM BTX-3): –0.68 ± 0.09
- +10 nM BTX-3 normalized INa (max) ([2]; CTX3C 5 nM in the presence of 10 nM BTX-3): –0.46 ± 0.09
- normalized INa (max) ([2]; 0.0001 nM): –0.79 ± 0.05
- normalized INa (max) ([2]; 0.001 nM): –0.62 ± 0.08
- normalized INa (max) ([2]; 0.01 nM): –0.66 ± 0.09
- normalized INa (max) ([2]; 0.1 nM): –0.63 ± 0.09
- normalized INa (max) ([2]; 1 nM): –0.27 ± 0.07
- normalized INa (max) ([2]; 5 nM): –0.32 ± 0.04
- activation voltage for CTX3C ([2]; [CTX3C] 0.0001 nM): –30.0 ± 0 mV
- shift in the activation voltage for CTX3C ([2]; [CTX3C] 0.0001 nM): 0.71 ± 5.4 mV
- activation voltage for CTX3C ([2]; [CTX3C] 0.001 nM): –30.0 ± 0 mV
- activation voltage for CTX3C ([2]; [CTX3C] 0.01 nM): –33.3 ± 3.3 mV
- shift in the activation voltage for CTX3C ([2]; [CTX3C] 0.01 nM): –2.62 ± 5.6 mV
- activation voltage for CTX3C ([2]; [CTX3C] 0.1 nM): –39.0 ± 1.8 mV
- shift in the activation voltage for CTX3C ([2]; [CTX3C] 0.1 nM): –8.29 ± 3.3 mV
- activation voltage for CTX3C ([2]; [CTX3C] 1 nM): –46.7 ± 2.9 mV
- activation voltage for CTX3C ([2]; [CTX3C] 5 nM): –51.67 ± 4.8 mV
- shift in the activation voltage for CTX3C ([2]; [CTX3C] 5 nM): –20.95 ± 4.8 mV
- peak sodium current at −10 mV ([2]; after bath application of 1 nM CTX3C, control −1156 ± 189 pA): −692 ± 372 pA
- increased potency on the activation voltage after combination ([2]; combination of CTX3C and BTX-3 vs each alone): 10 times
- IC50 ([2]; single toxin alone, read-out: IC50, negative shift in the activation voltage): 2.58 nM
- IC50 ([2]; single toxin alone, read-out: IC50, percent inhibition of the peak inward sodium currents (INa)): 0.173 nM
- Ki [1]: 0.47 nM
- higher affinity than that of BTX-3s ([1]; binding to VGSC, at concentrations of 1 nM of the compounds): 20 fold
- inactivation voltage for CTX3C (V1/2) ([3]; [CTX3C] 0.001 nM): –50.1 ± 4.1 mV
- inactivation voltage for CTX3C (V1/2) ([3]; [CTX3C] 0.01 nM): –47.4 ± 1.4 mV
- inactivation voltage for CTX3C (V1/2) ([3]; [CTX3C] 0.1 nM): –53.4 ± 6.8 mV
- inactivation voltage for CTX3C (V1/2) ([3]; [CTX3C] 1 nM): –54.9 ± 5 mV
- IC50 ([3]; single toxin alone): 306 nM

SMILES: C=C(CO)CC1CC(O)C2(C)OC3CC4OC5CC6(C)OC7(C)CCC8OC9CC%10(C)OC%11C(C)=CC(=O)OC%11CC%10OC9CC(C)C8OC7CC6OC5(C)C/C=C\C4OC3CC2O1 (stereo not shown) [BTX-3, brevetoxin 3]
- agonist profile on the channels (negative displacement in the activation voltage) [2]: partial agonist
- decrease in the maximum INa at −20 mV [2]: 21.9 ± 10.9%
- decrease of peak sodium current amplitude [2]: 31.2 ± 15%
- increased potency on the activation voltage after combination [2]: 10 times
- maximum INa at −20 mV [2]: −2887.70 ± 402.0 pA
- IC50 ([2]; read-out: IC50, negative shift in the activation voltage): 46.2 nM
- IC50 ([2]; read-out: IC50, percent inhibition of the peak inward sodium currents (INa)): 202 nM
- IC50 [3]: 4700 nM
